According to patent US5393755A, “Polycyclic guanine derivatives” (priority 1992, dated 1995):

Tests used:
[1] = system: spontaneously hypertensive rats (SHR); experiment: Antihypertensive Activity in Rats (conscious SHR, oral); type: in vivo, rat (spontaneously hypertensive; conditions: fasted SHR males
Source text: The present compounds are useful in inhibiting the phosphodiesterase enzymes. These phosphodiesterase enzymes are known to hydrolyze cGMP in smooth muscle. High levels of cGMP are associated with the relaxation of vascular smooth muscle, with a consequent subsequent reduction in blood pressure. Thus, it is believed that by inhibiting these phosphodiesterase enzymes, cGMP levels in muscle will be either maintained or increased with a subsequent reduction in blood pressure. In vivo antihypertensive activity is determined orally in spontaneously hypertensive rats (SHR). The ability of the compounds of the present invention to lower blood pressure can be assessed in vivo in conscious spontaneously hypertensive rats (SHR). SHR males are purchased from Taconic Farms, Germantown, N.Y. and are approximately 16-18 weeks old when anesthetized with ether. The caudal (ventral tail) artery is cannulated with polyethylene tubing (PE50) and blood pressure and heart rate are recorded as described by Baum, T. et. al, J. Cardiovasc. Pharmacol. Vol 5, pp. 655-667, (1983). Rats are placed into plastic cylindrical cages where they rapidly recover consciousness. Blood pressure and heart rate are allowed to stabilize for approximately 90 minutes prior to compound administration. Compounds are administered orally as solutions or suspensions in 0.4% aqueous methylcellulose vehicle via a feeding needle. […] Activity is expressed as the fall in mean blood pressure (MBP) in millimeters of mercury (mm Hg). Compound-induced changes are compared with the changes in an appropriate placebo group.

[2] = target: cGMP phosphodiesterase (cGMP-PDE) (Bos taurus, UniProt Q28156); experiment: biochemical; design: species or system bovine (lung); conditions: 1 μM 3H-cGMP substrate, pH 7.5, 25 minutes, room temperature
Experimental: (§1) Compounds are evaluated for inhibition of two phosphodiesterase enzymes which hydrolyze cyclic guanosine monophosphate (cGMP). The first enzyme, calcium-calmodulin dependent phosphodiesterase (CaM-PDE), is a partially pure enzyme obtained from bovine aorta homogenates and purified by DEAE-cellulose and calmodulin-affinity chromatography. The enzyme is activated several fold by Ca-calmodulin and is selective for cGMP, although it will also hydrolyze cAMP. […] Bovine aorta homogenates and primary cultures of bovine aortic endothelial and vascular smooth muscle cells contain an enzyme with properties very similar to the lung isozyme.
(§2) The enzyme assay is performed using a Biomek Automated Pipetting Station. Compounds are dissolved in distilled water or DMSO and diluted with 10% DMSO.
(§3) Assays contain the following components:
(§4) 50 mM Tris-HCl, pH 7.5, 5 mM magnesium chloride
(§5) 0.5 mg/ml snake venom alkaline phosphatase
(§6) Assays are initiated by addition of enzyme and stopped by addition of 10 mM isobutylmethylxanthine, a general phosphodiesterase inhibitor. Assays are performed for 25 minutes at room temperature to achieve 5-10% hydrolysis of substrate. The negatively charged substrates are then separated from guanosine by binding to an anion-exchange resin (AG1-X8) and centrifugation or filtration, and the product is quantitated by scintillation counting in counts per minute (cpm) of the remaining soluble material. Percent inhibition is calculated as follows:
(§7) % Inhibition=100-[(cpm compound-blank)/(cpm control-blank)×100]
(§8) Activity is expresssed as the IC50 value, i.e. the concentration required to inhibit activity of enzyme by 50 per cent.

[3] = target: T1, calcium-calmodulin dependent phosphodiesterase (CaM-PDE) (Bos taurus, UniProt P14100); experiment: Phosphodiesterase Inhibition In Vitro: CaM-PDE; type: biochemical, bovine (aorta); conditions: 1 μM 3H-cGMP substrate, pH 7.5, 25 minutes, room temperature, with calmodulin and CaCl2
T1 construct: partially pure enzyme obtained from bovine aorta homogenates; from tissue; host or cells: bovine aorta homogenates
Experimental: as §1, §2, §3, §4, §5
0.1 μM Calmodulin and 1 mM CaCl2 (for CaM-PDE only)
as §6, §7, §8

Structure (SMILES) | SHR Antihypertensive Fall in MBP ([1]; Dose 25 mpk) [mmHg] | IC50 [2] [µM] | IC50 [3] [µM] | SHR Antihypertensive Fall in MBP ([1]; Dose 5 mpk) [mmHg] | SHR Antihypertensive Fall in MBP ([1]; Dose 10 mpk) [mmHg]
CN1C(=O)c2c(ncn2Cc2ccccc2)N2C1=N[C@@H]1CCC[C@@H]12 (relative stereo) [Example 1, cis-5,6a,7,8,9,9a-Hexahydro-5-methyl-3-(phenylmethyl)cyclopent[4,5]imidazo[2,1-b]purin-4-one] | 30 | 0.4 | 0.3 |  | 
CN1C(=O)c2c(ncn2Cc2ccccc2)N2C1=N[C@@H]1CCCC[C@@H]12 (relative stereo) [Example 3, cis-6a,7,8,9,10,10a-Hexahydro-5-methyl-3-(phenylmethyl)-3H-benzimidazo[2,1-b]purin-4(5H)-one] | 22 | 1.4 | 0.1 |  | 
Cc1nc2c(n1Cc1ccccc1)C(=O)N(C)C1=N[C@@H]3CCC[C@@H]3N12 (relative stereo) [Example 9, cis-5,6a,7,8,9,9a-Hexahydro-2,5-dimethyl-3-(phenylmethyl)cyclopent[4,5]imidazo[2,1-b]purin-4-(3H)-one] | 36 |  | 0.6 |  | 
Cc1nc2c(n1Cc1ccccc1)C(=O)N(C)C1=N[C@@H]3CCCC[C@@H]3N12 (relative stereo) [Example 12, cis-6a,7,8,9,10,10a-Hexahydro-2,5-dimethyl-3-(phenylmethyl)-3H-benzimidazo[2,1-b]purin-4(5H)-one] | 38 | 0.2 | 0.2 |  | 
Cc1nc2c(n1Cc1ccccc1)C(=O)N(C)C1=N[C@@H]3CCCCC[C@@H]3N12 (relative stereo) [Example 14, cis-5,6a,7,8,9,9a-Hexahydro-2,5-dimethyl-3-(phenylmethyl)cyclohept[6,7]imidazo[2,1-b]purin-4(3H)-one] | 20 | 0.9 | 0.3 |  | 
CCc1nc2c(n1Cc1ccccc1)C(=O)N(C)C1=N[C@@H]3CCCC[C@@H]3N12 (relative stereo) [Example 16, cis-6a,7,8,9,10,10a-Hexahydro-5-methyl-2-ethyl-3-(phenylmethyl)-3H-benzimidazo[2,1-b]purin-4(5H)-one] | 23 | 3 | 0.1 |  | 
CN1C(=S)c2c(ncn2Cc2ccccc2)N2C1=N[C@@H]1CCC[C@@H]12 (relative stereo) [Example 20, cis-5,6a,7,8,9,9a-Hexahydro-5-methyl-3-(phenylmethyl)cyclopenta[4,5]imidazo[2,1-b]purin-4(3H)-thione] | 6 | 0.4 | 0.04 |  | 
CN1C(=O)c2c(ncn2Cc2ccc(Cl)cc2)N2C1=N[C@@H]1CCC[C@@H]12 (relative stereo) [Example 21, cis-5,6a,7,8,9,9a-Hexahydro-5-methyl-3-(4-chlorophenylmethyl)cyclopenta[4,5]imidazo[2,1-b]purin-4(3H)-one] | 20 | 0.4 | 3.3 |  | 
CN1C(=O)c2c(ncn2CC2CCCCC2)N2C1=N[C@@H]1CCC[C@@H]12 (relative stereo) [Example 22, cis-5,6a,7,8,9,9a-Hexahydro-5-methyl-3-(cyclohexylmethyl)cyclopent[4,5]imidazo[2,1-b]purin-4(3H)-one] | 15 | 0.2 | 0.2 |  | 
COC(=O)c1nc2c(n1Cc1ccccc1)C(=O)N(C)C1=N[C@@H]3CCC[C@@H]3N12 (relative stereo) [Example 28, cis-3,4,5,6a,7,8,9,9a-Octahydro-5-methyl-4-oxo-3-(phenylmethyl)cyclopent[4,5]imidazo[2,1-b]purin-2-carboxylic acid, methyl ester] | 19 | 0.2 | 0.2 |  | 
Cc1nc2c(n1Cc1ccccc1)C(=O)N(C)C1=NC34CCCC3CCC4N12 (single isomer, unassigned; (+)) [Example 39, (+) 6a,7,8,9,9a,10,11,11a-Octahydro-2,5-dimethyl-3-phenylmethyl-3H-pentaleno[6a',1':4,5]imidazo[2,1-b]purin-4(5H)-one] | 40 | 0.1 | 0.1 |  | 
Cc1nc2c([nH]1)C(=O)N(C)C1=NC34CCCC3CCC4N12.Cl (single isomer, unassigned; (+)) [Example 41a, (+)-6a,7,8,9,9a,10,11,11a-Octahydro-2,5-dimethyl-3H-pentaleno[6a',1':4,5]imidazo[2,1-b]purin-4(5H)-one, hydrochloride] | 67 | 0.1 | 0.2 | 45 | 52
Cc1nc2c(n1Cc1ccccc1)C(=O)N(C)C1=N[C@@H]3CCC[C@@H]3N12 [Example 10, 5,6a(R),7,8,9,9a(S)-Hexahydro-2,5-dimethyl-3-(phenylmethyl)cyclopent[4,5]imidazo[2,1-b]purin-4(3H)-one] | 45 |  | 0.3 |  | 
Cc1nc2c([nH]1)C(=O)N(C)C1=N[C@@H]3CCC[C@@H]3N12 [Example 19a, cis-5,6a(R),7,8,9,9a(S)-Hexahydro-2,5-di-methylcyclopent[4,5]imidazo[2,1-b]purin-4(3H)-one] | 40 | 0.3 | 3 |  | 
CN1C(=O)c2c(ncn2Cc2ccccc2)N2CC3(CCCC3)N=C12 [Example 34, 5'-Methyl-3'-(phenylmethyl)-spiro[cyclopentane-1,7'(8'H)-(3'H)-imidazo[2,1-b]purin]-4'(5'H)one] | 40 | 0.1 | 0.1 |  | 
Cc1nc2c(n1Cc1ccccc1)C(=O)N(C)C1=NC3(CCCC3)CN12 [Example 34a, 2',5'-Dimethyl-3'-(phenylmethyl)spiro[cyclopentane-1,7'(8'H)-(3'H)-imidazo[2,1-b]purin]-4'(5'H)one] | 58 | 0.8 | 0.3 |  | 
CN1C(=O)c2c(ncn2Cc2ccccc2)N2C1=N[C@@H]1CCC[C@@H]12 [Example 35, cis-5,6a(R),7,8,9,9a(S)-Hexahydro-5-methyl-3-(phenylmethyl)cyclopent[4,5]imidazo[2,1-b]purin-4(3H)one] | 41 | 0.3 | 0.4 |  | 
